Key:
in vivo [1] = details: ICR, mouse, other tissue
[2] = target: Polyamine deacetylase HDAC10 (Homo sapiens, UniProt Q969S8); assay: biochemical; type: cell-based
Description: Inhibition of recombinant human His6/GST-tagged HDAC10 expressed in baculovirus infected High5 insect cells using Ac-Lys-Tyr-Lys(epsilon-acetyl)-AMC as susbtrate after 24 hrs by fluorescence based assay

in vivo [3] = details: ICR, mouse, iv, 2 mg/kg
[4] = mouse, in vivo, po, 50 mg/kg, 1 h
[5] = mouse, in vivo, po, 50 mg/kg, 1 h; remark: listed apart in the source
[6] = mouse, in vivo
in vivo [7] = details: ICR, mouse, iv, 2 mg/kg; remark: listed apart in the source
[8] = cynomolgus monkey, hepatocytes, 3 h, 3 µM
[9] = mouse, in vivo; remark: listed apart in the source
[10] = mouse, hepatocytes, 3 h, 3 µM
[11] = human, hepatocytes, 3 h, 3 µM
[12] = human, hepatocytes, 3 h, 3 µM; remark: listed apart in the source
[13] = target: NAD-dependent protein deacetylase sirtuin-1 (Homo sapiens, UniProt Q96EB6)
Description: Inhibition of recombinant human N-terminal GST-tagged SIRT1 expressed in Escherichia coli using Ac-Arg-His-Lys-Lys(Ac)-AMC as susbtrate after 1 hr by fluorescence based assay

[14] = mouse, in vivo, po, 50 mg/kg, 1 h; remark: listed apart in the source
[15] = mouse, in vivo, iv, 10 mg/kg
[16] = mouse, in vivo; remark: listed apart in the source
Histone deacetylase 2 = Histone deacetylase 2 (Homo sapiens, UniProt Q92769); assay: biochemical; type: cell-based
Description: Inhibition of recombinant human His6/GST-tagged HDAC2 expressed in baculovirus infected High5 insect cells using Ac-Lys-Tyr-Lys(epsilon-acetyl)-AMC as susbtrate after 24 hrs by fluorescence based assay

in vivo [17] = details: ICR, mouse, po, 5 mg/kg
[18] = dog, hepatocytes, 3 h, 3 µM
[19] = mouse, in vivo; remark: listed apart in the source
[20] = human, hepatocytes, 3 h, 3 µM; remark: listed apart in the source
in vivo [21] = details: ICR, mouse, other tissue; remark: listed apart in the source
HT-29 [22] = type: functional, Homo sapiens; details: at 50 mg/kg
Description: Antitumor activity against human HT-29 cells xenografted in nude mouse assessed as reduction in tumor growth at 50 mg/kg, po qd for 21 days relative to control

[23] = mouse, in vivo; remark: listed apart in the source
[24] = rat, hepatocytes, 3 h, 3 µM
[25] = cynomolgus monkey, hepatocytes, 3 h, 3 µM; remark: listed apart in the source
Histone deacetylase 7 = Histone deacetylase 7 (Homo sapiens, UniProt Q8WUI4); assay: biochemical; type: cell-based, Sf9
in vivo [26] = details: ICR, mouse, brain
T47D = assay: cells; type: functional, cell-based; details: Homo sapiens, 72 h
Description: Antiproliferative activity against human T47D cells assessed as reduction in cell growth after 72 hrs

[27] = human, hepatocytes, 3 h, 3 µM; remark: listed apart in the source
[28] = mouse, in vivo; remark: listed apart in the source
Histone deacetylase 4 = Histone deacetylase 4 (Homo sapiens, UniProt P56524); assay: biochemical; type: cell-based
Description: Inhibition of recombinant human His6/GST-tagged HDAC4 expressed in baculovirus infected High5 insect cells using Ac-Leu-Gly-Lys(Tfa)-AMC as substrate after 24 hrs by fluorescence based assay

in vivo [29] = details: female, ICR, mouse, other tissue
[30] = target: NAD-dependent protein deacetylase sirtuin-3, mitochondrial (Homo sapiens, UniProt Q9NTG7)
Description: Inhibition of recombinant human N-terminal His-tagged SIRT3 expressed in Escherichia coli using Ac-Arg-His-Lys-Lys(Ac)-AMC as susbtrate after 2 hrs by fluorescence based assay

HT-29 [31] = assay: cells; type: functional, cell-based; details: Homo sapiens, HT-29, 72 h
Description: Antiproliferative activity against human HT-29 cells assessed as reduction in cell growth after 72 hrs

[32] = rat, hepatocytes, 3 h, 3 µM; remark: listed apart in the source
[33] = mouse, in vivo; remark: listed apart in the source
[34] = mouse, hepatocytes, 3 h, 3 µM; remark: listed apart in the source
in vivo [35] = details: ICR, mouse, po, 5 mg/kg; remark: listed apart in the source
Histone deacetylase 11 = Histone deacetylase 11 (Homo sapiens, UniProt Q96DB2); assay: biochemical; type: cell-based
Description: Inhibition of recombinant human His6/GST-tagged HDAC11 expressed in baculovirus infected High5 insect cells using Ac-Lys-Tyr-Lys(epsilon-acetyl)-AMC as susbtrate after 24 hrs by fluorescence based assay

[36] = dog, hepatocytes, 3 h, 3 µM; remark: listed apart in the source
[37] = mouse, in vivo; remark: listed apart in the source
[38] = mouse, in vivo; remark: listed apart in the source
[39] = cynomolgus monkey, hepatocytes, 3 h, 3 µM; remark: listed apart in the source
HT-29 [40] = type: functional, Homo sapiens; details: at 100 mg/kg
Description: Antitumor activity against human HT-29 cells xenografted in nude mouse assessed as reduction in tumor growth at 100 mg/kg, po qd for 21 days relative to control

[41] = mouse, in vivo, po, 50 mg/kg, 1 h; remark: listed apart in the source
[42] = dog, hepatocytes, 3 h, 3 µM; remark: listed apart in the source
[43] = mouse, in vivo, po, 50 mg/kg, 1 h; remark: listed apart in the source
[44] = rat, hepatocytes, 3 h, 3 µM; remark: listed apart in the source
[45] = dog, hepatocytes, 3 h, 3 µM; remark: listed apart in the source
[46] = mouse, in vivo; remark: listed apart in the source
in vivo [47] = details: ICR, mouse, iv, 2 mg/kg; remark: listed apart in the source
MCF7 = assay: cells; type: functional, cell-based; details: Homo sapiens, MCF7, 72 h
Description: Antiproliferative activity against human MCF7 cells assessed as reduction in cell growth after 72 hrs

[48] = mouse, in vivo, po, 50 mg/kg, 1 h; remark: listed apart in the source
EBC-1 = assay: cells; type: functional, cell-based; details: Homo sapiens, EBC-1, 72 h
Description: Antiproliferative activity against human EBC1 cells assessed as reduction in cell growth after 72 hrs

[49] = cynomolgus monkey, hepatocytes, 3 h, 3 µM; remark: listed apart in the source
Histone deacetylase 9 = Histone deacetylase 9 (Homo sapiens, UniProt Q9UKV0); assay: biochemical; type: cell-based, Sf9
[50] = mouse, hepatocytes, 3 h, 3 µM; remark: listed apart in the source
in vivo [51] = details: ICR, mouse, other tissue; remark: listed apart in the source
[52] = cynomolgus monkey, hepatocytes, 3 h, 3 µM; remark: listed apart in the source
in vivo [53] = details: male, ICR, mouse, other tissue
in vivo [54] = details: ICR, mouse, po, 5 mg/kg; remark: listed apart in the source
Description: Half life in ICR mouse at 5 mg/kg, po measured up to 24 hrs by LC-MS analysis

MDA-MB-231 = assay: cells; type: functional, cell-based; details: Homo sapiens, MDA-MB-231, 72 h
Description: Antiproliferative activity against human MDA-MB-231 cells assessed as reduction in cell growth after 72 hrs

[55] = human, hepatocytes, 3 h, 3 µM; remark: listed apart in the source
[56] = mouse, in vivo; remark: listed apart in the source
Histone deacetylase 5 = Histone deacetylase 5 (Homo sapiens, UniProt Q9UQL6); assay: biochemical; type: cell-based, Sf9
Description: Inhibition of recombinant N-terminal GST-tagged full length human HDAC5 expressed in baculovirus infected Sf9 cells using Ac-Leu-Gly-Lys(Tfa)-AMC as substrate after 24 hrs by fluorescence based assay

in vivo [57] = details: ICR, mouse, other tissue; remark: listed apart in the source
[58] = rat, hepatocytes, 3 h, 3 µM; remark: listed apart in the source
[59] = mouse, hepatocytes, 3 h, 3 µM; remark: listed apart in the source
in vivo [60] = details: ICR, mouse, po, 5 mg/kg; remark: listed apart in the source
[61] = mouse, in vivo, po, 50 mg/kg, 1 h; remark: listed apart in the source
[62] = cynomolgus monkey, hepatocytes, 3 h, 3 µM; remark: listed apart in the source
[63] = human, hepatocytes, 3 h, 3 µM; remark: listed apart in the source
in vivo [64] = details: ICR, mouse, other tissue; remark: listed apart in the source
in vivo [65] = details: female, ICR, mouse, other tissue; remark: listed apart in the source
[66] = mouse, hepatocytes, 3 h, 3 µM; remark: listed apart in the source
[67] = target: NAD-dependent protein deacetylase sirtuin-2 (Homo sapiens, UniProt Q8IXJ6)
Description: Inhibition of recombinant human N-terminal GST-tagged SIRT2 expressed in Escherichia coli using Ac-Arg-His-Lys-Lys(Ac)-AMC as susbtrate after 2 hrs by fluorescence based assay

[68] = mouse, in vivo, po, 50 mg/kg, 1 h; remark: listed apart in the source
in vivo [69] = details: ICR, mouse, po, 5 mg/kg; remark: listed apart in the source
Description: Mean residence time in ICR mouse at 5 mg/kg, po after 1 hr to 24 hrs by LC-MS analysis

[70] = rat, hepatocytes, 3 h, 3 µM; remark: listed apart in the source
in vivo [71] = details: ICR, mouse, iv, 2 mg/kg; remark: listed apart in the source
NCI-H1975 = assay: cells; type: functional, cell-based; details: Homo sapiens, NCI-H1975, 72 h
Description: Antiproliferative activity against human NCI-H1975 cells assessed as reduction in cell growth after 72 hrs

in vivo [72] = details: ICR, mouse, po, 5 mg/kg; remark: listed apart in the source
[73] = dog, hepatocytes, 3 h, 3 µM; remark: listed apart in the source
in vivo [74] = details: ICR, mouse, po, 5 mg/kg; remark: listed apart in the source
[75] = mouse, in vivo, po, 50 mg/kg, 1 h; remark: listed apart in the source
[76] = mouse, hepatocytes, 3 h, 3 µM; remark: listed apart in the source
[77] = mouse, in vivo, po, 50 mg/kg, 6 h
NCI-N87 = assay: cells; type: functional, cell-based; details: Homo sapiens, NCI-N87, 72 h
Description: Antiproliferative activity against human NCI-N87 cells assessed as reduction in cell growth after 72 hrs

[78] = mouse, in vivo, po, 50 mg/kg, 1 h; remark: listed apart in the source
HT-29 [79] = type: functional, Homo sapiens; details: at 25 mg/kg
Description: Antitumor activity against human HT-29 cells xenografted in nude mouse assessed as reduction in tumor growth at 25 mg/kg, po qd for 21 days relative to control

[80] = dog, hepatocytes, 3 h, 3 µM; remark: listed apart in the source
Bel-7402 = assay: cells; type: functional, cell-based; details: Homo sapiens, Bel-7402, 72 h
Description: Antiproliferative activity against human Bel7402 cells assessed as reduction in cell growth after 72 hrs

in vivo [81] = details: ICR, mouse, other tissue; remark: listed apart in the source
Histone deacetylase 8 = Histone deacetylase 8 (Homo sapiens, UniProt Q9BY41); assay: biochemical; type: cell-based
Description: Inhibition of recombinant human His6/GST-tagged HDAC8 expressed in baculovirus infected High5 insect cells using Ac-Lys-Tyr-Lys(epsilon-acetyl)-AMC as susbtrate after 24 hrs by fluorescence based assay

[82] = mouse, in vivo, iv, 10 mg/kg; remark: listed apart in the source
[83] = mouse, in vivo, po, 50 mg/kg, 1 h; remark: listed apart in the source
[84] = rat, hepatocytes, 3 h, 3 µM; remark: listed apart in the source
Histone deacetylase 1 = Histone deacetylase 1 (Homo sapiens, UniProt Q13547); assay: biochemical; type: cell-based
Chain of Histone deacetylase 1 (Q13547 whole entry): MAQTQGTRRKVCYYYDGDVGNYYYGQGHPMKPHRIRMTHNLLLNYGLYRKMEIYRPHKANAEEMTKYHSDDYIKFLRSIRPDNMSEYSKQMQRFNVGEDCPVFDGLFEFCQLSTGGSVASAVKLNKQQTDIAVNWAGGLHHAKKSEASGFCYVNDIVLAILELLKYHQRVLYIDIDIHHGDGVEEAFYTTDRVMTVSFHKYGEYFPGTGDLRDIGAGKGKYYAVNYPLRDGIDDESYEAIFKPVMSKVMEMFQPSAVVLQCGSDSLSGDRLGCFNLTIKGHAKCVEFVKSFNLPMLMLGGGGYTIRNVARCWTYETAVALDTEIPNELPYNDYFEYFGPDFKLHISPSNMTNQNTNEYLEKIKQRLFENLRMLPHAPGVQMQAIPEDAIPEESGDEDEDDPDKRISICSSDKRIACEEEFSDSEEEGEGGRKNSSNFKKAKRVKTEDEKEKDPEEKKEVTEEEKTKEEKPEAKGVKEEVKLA
Description: Inhibition of recombinant His6/GST-tagged human HDAC1 expressed in baculovirus infected High5 insect cells using Ac-Lys-Tyr-Lys(epsilon-acetyl)-AMC as substrate after 24 hrs by fluorescence based assay

Chain of NAD-dependent protein deacetylase sirtuin-2 (Q8IXJ6 whole entry): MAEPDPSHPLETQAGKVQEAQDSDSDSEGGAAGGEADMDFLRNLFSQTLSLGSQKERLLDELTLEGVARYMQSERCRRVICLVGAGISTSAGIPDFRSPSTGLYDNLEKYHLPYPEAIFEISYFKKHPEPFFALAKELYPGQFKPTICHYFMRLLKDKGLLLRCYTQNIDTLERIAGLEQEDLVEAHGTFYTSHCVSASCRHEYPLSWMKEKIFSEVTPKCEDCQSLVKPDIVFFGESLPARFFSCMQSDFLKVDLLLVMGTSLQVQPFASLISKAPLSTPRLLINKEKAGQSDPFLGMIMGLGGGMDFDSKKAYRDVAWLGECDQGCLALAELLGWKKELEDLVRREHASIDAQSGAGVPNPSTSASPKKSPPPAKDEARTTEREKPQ
Chain of NAD-dependent protein deacetylase sirtuin-3, mitochondrial (Q9NTG7 whole entry): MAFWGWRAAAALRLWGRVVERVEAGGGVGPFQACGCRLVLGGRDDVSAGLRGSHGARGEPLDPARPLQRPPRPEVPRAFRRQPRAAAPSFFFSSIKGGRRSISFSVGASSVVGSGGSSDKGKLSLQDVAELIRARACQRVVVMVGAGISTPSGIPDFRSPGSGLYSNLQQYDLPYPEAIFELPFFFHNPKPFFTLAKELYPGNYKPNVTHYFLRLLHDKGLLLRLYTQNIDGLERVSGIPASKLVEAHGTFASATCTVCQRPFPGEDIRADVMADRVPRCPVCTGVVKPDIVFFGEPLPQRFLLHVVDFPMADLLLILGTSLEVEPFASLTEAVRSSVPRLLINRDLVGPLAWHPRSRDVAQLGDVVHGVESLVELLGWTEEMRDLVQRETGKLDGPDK
Chain of NAD-dependent protein deacetylase sirtuin-1 (Q96EB6 whole entry): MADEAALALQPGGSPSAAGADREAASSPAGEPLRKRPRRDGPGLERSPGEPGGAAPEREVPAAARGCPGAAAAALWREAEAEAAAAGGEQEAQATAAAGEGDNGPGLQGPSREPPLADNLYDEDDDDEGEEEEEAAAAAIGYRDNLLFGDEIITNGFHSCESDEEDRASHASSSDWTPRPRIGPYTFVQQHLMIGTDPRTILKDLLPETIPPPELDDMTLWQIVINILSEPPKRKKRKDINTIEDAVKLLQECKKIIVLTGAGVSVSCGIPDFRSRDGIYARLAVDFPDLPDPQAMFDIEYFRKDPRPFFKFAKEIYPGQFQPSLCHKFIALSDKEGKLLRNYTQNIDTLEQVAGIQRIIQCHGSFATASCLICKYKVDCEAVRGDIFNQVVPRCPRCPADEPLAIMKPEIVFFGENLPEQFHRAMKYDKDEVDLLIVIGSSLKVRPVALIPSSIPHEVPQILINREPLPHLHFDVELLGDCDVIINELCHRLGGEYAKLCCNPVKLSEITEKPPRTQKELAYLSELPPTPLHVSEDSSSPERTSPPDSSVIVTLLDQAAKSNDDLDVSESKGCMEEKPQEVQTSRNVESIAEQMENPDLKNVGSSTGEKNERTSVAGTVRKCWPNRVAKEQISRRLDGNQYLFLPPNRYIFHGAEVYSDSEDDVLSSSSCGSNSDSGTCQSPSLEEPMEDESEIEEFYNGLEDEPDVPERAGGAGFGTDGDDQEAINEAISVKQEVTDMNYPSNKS
Chain of Histone deacetylase 9 (Q9UKV0 whole entry): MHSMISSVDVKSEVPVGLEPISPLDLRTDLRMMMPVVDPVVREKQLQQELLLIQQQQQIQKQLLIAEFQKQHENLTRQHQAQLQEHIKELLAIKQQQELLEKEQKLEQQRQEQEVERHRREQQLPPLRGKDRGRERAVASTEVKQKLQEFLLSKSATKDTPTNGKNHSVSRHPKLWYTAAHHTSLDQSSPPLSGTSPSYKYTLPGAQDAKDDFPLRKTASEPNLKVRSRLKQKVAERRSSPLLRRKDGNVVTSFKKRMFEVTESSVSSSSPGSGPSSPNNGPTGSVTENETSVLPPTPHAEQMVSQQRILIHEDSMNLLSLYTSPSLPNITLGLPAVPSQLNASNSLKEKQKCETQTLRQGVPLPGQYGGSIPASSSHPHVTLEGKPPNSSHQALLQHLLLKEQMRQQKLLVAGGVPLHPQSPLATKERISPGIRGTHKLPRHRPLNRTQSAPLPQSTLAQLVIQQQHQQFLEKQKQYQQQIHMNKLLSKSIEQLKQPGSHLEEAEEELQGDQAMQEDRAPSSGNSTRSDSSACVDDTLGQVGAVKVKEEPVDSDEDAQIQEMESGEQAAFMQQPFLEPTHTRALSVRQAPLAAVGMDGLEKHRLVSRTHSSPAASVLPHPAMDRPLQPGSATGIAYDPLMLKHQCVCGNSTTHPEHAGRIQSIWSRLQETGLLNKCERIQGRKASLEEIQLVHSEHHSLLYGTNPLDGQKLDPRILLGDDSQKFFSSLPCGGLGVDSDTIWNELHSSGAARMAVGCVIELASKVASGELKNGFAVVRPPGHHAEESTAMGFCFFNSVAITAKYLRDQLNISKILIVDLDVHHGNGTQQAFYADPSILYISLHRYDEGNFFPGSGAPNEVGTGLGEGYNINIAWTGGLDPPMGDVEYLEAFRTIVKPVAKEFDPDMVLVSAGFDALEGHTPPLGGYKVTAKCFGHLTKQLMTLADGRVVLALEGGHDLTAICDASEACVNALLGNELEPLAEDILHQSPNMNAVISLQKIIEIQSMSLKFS
Chain of Histone deacetylase 4 (P56524 whole entry): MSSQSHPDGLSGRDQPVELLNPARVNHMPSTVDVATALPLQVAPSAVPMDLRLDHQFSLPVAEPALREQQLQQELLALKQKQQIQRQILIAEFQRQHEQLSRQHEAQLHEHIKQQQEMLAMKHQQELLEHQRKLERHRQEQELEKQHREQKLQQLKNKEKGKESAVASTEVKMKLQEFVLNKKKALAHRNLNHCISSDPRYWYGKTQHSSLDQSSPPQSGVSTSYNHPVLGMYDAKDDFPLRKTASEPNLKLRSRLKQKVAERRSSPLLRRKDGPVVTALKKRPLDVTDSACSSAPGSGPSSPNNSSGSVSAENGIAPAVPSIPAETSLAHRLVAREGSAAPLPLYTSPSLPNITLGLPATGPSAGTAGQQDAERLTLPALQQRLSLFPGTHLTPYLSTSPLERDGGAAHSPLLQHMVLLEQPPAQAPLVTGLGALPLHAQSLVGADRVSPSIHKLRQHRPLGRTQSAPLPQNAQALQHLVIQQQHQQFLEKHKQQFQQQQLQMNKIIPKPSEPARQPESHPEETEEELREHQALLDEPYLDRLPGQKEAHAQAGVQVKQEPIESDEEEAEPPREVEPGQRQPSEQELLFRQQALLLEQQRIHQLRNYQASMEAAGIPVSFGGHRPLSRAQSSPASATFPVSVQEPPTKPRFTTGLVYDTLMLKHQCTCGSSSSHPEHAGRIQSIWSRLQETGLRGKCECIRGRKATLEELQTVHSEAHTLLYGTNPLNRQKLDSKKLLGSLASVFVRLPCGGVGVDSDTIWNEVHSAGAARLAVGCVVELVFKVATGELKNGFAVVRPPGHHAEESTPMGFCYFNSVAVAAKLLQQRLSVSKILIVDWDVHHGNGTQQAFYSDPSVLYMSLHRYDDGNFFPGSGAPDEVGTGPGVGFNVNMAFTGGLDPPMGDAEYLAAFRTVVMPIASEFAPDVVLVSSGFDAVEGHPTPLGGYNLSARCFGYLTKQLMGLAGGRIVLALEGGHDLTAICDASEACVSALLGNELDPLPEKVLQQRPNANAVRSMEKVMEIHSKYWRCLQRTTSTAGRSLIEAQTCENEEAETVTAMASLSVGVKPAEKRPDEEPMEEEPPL
Chain of Histone deacetylase 11 (Q96DB2 whole entry): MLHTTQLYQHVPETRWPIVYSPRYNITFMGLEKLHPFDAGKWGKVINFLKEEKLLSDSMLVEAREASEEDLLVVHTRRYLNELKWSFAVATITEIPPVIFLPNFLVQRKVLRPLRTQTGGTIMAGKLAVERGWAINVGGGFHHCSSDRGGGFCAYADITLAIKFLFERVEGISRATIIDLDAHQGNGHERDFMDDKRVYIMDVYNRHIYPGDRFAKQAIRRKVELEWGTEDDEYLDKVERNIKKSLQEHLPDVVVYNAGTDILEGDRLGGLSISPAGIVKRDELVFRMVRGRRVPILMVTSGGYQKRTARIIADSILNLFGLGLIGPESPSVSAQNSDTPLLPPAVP
Chain of Histone deacetylase 8 (Q9BY41 whole entry): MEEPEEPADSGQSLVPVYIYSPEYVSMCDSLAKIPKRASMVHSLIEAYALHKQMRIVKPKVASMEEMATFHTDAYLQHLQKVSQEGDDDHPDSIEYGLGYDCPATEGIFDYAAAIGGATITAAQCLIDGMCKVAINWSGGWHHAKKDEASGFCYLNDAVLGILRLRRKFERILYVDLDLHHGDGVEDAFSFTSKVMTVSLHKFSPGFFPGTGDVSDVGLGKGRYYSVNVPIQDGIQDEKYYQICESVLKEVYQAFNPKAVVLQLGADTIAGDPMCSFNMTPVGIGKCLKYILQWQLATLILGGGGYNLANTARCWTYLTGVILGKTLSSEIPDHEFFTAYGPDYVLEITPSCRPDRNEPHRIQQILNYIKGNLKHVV

C[C@H](NC(=O)c1nc(-c2ncc(-c3ccccc3)s2)sc1C1CC1)c1ccc(C(=O)NO)cc1
Kp (in vivo [1]): 176 | IC50 [2]: 1.98 nM | AUC(0-inf) (in vivo [3]): 1250 ng·h/mL | Drug uptake [4]: Active | Drug uptake [5]: Active | AUC [6]: 8795 ng·h/g | half-life (in vivo [7]): 8.67 h | Drug metabolism [8]: Metabolite_Detected | AUC [9]: 4692 ng·h/g | Drug metabolism [10]: Metabolite_Detected | Drug metabolism [11]: Metabolite_Notdetected | Drug metabolism [12]: Metabolite_Detected | IC50 [13]: > 20000 nM | Drug uptake [14]: Active | Drug uptake [15]: Active | AUC [16]: 2622 ng·h/g | IC50 (Histone deacetylase 2): 13.3 nM | Cmax (in vivo [17]): 138 ng/mL | Drug metabolism [18]: Metabolite_Detected | AUC [19]: 698 ng·h/g | Drug metabolism [20]: Metabolite_Detected | Kp (in vivo [21]): 8.66 | T/C (HT-29 [22]): 59.72% | AUC [23]: 1472 ng·h/g | Drug metabolism [24]: Metabolite_Detected | Drug metabolism [25]: Metabolite_Detected | IC50 (Histone deacetylase 7): > 20000 nM | Kp (in vivo [26]): 1.17 | IC50 (T47D): 40.8 nM | Drug metabolism [27]: Metabolite_Detected | AUC [28]: 3438 ng·h/g | IC50 (Histone deacetylase 4): > 20000 nM | Kp (in vivo [29]): 4.38 | IC50 [30]: > 20000 nM | IC50 (HT-29 [31]): 166 nM | Drug metabolism [32]: Metabolite_Detected | AUC [33]: 5185 ng·h/g | Drug metabolism [34]: Metabolite_Notdetected | AUC(0-inf) (in vivo [35]): 944 ng·h/mL | IC50 (Histone deacetylase 11): 77.8 nM | Drug metabolism [36]: Metabolite_Detected | AUC [37]: 599 ng·h/g | AUC [38]: 105642 ng·h/g | Drug metabolism [39]: Metabolite_Notdetected | T/C (HT-29 [40]): 37.56% | Drug uptake [41]: Active | Drug metabolism [42]: Metabolite_Notdetected | Drug uptake [43]: Active | Drug metabolism [44]: Metabolite_Detected | Drug metabolism [45]: Metabolite_Detected | AUC [46]: 6079 ng·h/g | AUC(0-t) (in vivo [47]): 1080 ng·h/mL | IC50 (MCF7): 58.5 nM | Drug uptake [48]: Active | IC50 (EBC-1): 110 nM | Drug metabolism [49]: Metabolite_Detected | IC50 (Histone deacetylase 9): > 20000 nM | Drug metabolism [50]: Metabolite_Notdetected | Kp (in vivo [51]): 7.84 | Drug metabolism [52]: Metabolite_Notdetected | Kp (in vivo [53]): 2.46 | half-life at 24 h (in vivo [54]): 4.23 h | IC50 (MDA-MB-231): 76.6 nM | Drug metabolism [55]: Metabolite_Detected | AUC [56]: 1964 ng·h/g | IC50 (Histone deacetylase 5): 16700 nM | Kp (in vivo [57]): 5.74 | Drug metabolism [58]: Metabolite_Notdetected | Drug metabolism [59]: Metabolite_Detected | bioavailability (in vivo [60]): 34 to 34.4% | Drug uptake [61]: Active | Drug metabolism [62]: Metabolite_Detected | Drug metabolism [63]: Metabolite_Notdetected | Kp (in vivo [64]): 10.2 | Kp (in vivo [65]): 3.28 | Drug metabolism [66]: Metabolite_Detected | IC50 [67]: > 20000 nM | Drug uptake [68]: Active | MRT (in vivo [69]): 5.22 h | Drug metabolism [70]: Metabolite_Notdetected | MRT (in vivo [71]): 10.4 h | IC50 (NCI-H1975): 66.4 nM | AUC(0-t) (in vivo [72]): 924 ng·h/mL | Drug metabolism [73]: Metabolite_Detected | Tmax at 24 h (in vivo [74]): 0.67 h | Drug uptake [75]: Active | Drug metabolism [76]: Metabolite_Detected | Drug uptake [77]: Active | IC50 (NCI-N87): 28.3 nM | Drug uptake [78]: Active | T/C (HT-29 [79]): 60.58% | Drug metabolism [80]: Metabolite_Notdetected | IC50 (Bel-7402): 80.8 nM | Kp (in vivo [81]): 14.7 | IC50 (Histone deacetylase 8): 16.8 nM | Drug uptake [82]: Active | Drug uptake [83]: Active | Drug metabolism [84]: Metabolite_Detected

O=C(NO)c1ccc(C2(NC(=O)c3nc(-c4nccs4)sc3C3CC3)CC2)cc1
IC50 (Histone deacetylase 1): 22.3 nM

CC(C)Cc1sc(-c2nccs2)nc1C(=O)Nc1ccc(/C=C/C(=O)NO)cc1
IC50 (Histone deacetylase 1): 660 nM

CC(C)(NC(=O)c1nc(-c2nccs2)sc1C1CC1)c1ccc(C(=O)NO)cc1
IC50 (Histone deacetylase 1): 163 nM

Cc1[nH]c2ccccc2c1CCNCc1ccc(/C=C/C(=O)NO)cc1 [PANOBINOSTAT]
IC50 [13]: > 20000 nM | T/C (HT-29 [22]): 93.85% | IC50 [30]: > 20000 nM | IC50 (MCF7): 9 nM | IC50 [67]: > 20000 nM
